We go through two compounds from publication PMC6897945, “CytA, a reductase in the cytorhodin biosynthesis pathway, inactivates anthracycline drugs in Streptomyces” (Communications Biology, 2019).

For orientation: IC50 means the concentration needed to halve the response being measured.

For one assay, the system named is MDA-MB-468 cells. The note with it: read-out: IC50 against MDA-MB-468 cells; cited from earlier work.
In assay [1] the test system is Streptomyces sp. SCSIO 1666 ΔcytA mutant strain. Nature of the assay: Growth inhibition zone assay. It is filed as cell-based. Particulars: Streptomyces, read-out: inhibition zone. The source says: (§1) We also noted that the ∆cytA mutant strain accumulated small amounts (80~100-fold lower than WT producer) of the immediate biosynthetic precursors of cosmomycins A (3) and B (4). The in vitro antimicrobial activities of compounds 1–13 against a panel of gram-positive bacteria (Table 2) provided some insight into the possible physiological significance of CytA-catalyzed reductions. Furthermore, we had observed that the ΔcytA mutant strain is clearly impaired relative to the WT strain upon addition of 6 or 7 as potential substrates. To evaluate this effect, we probed the sensitivity of Streptomyces sp. SCSIO 1666 to 6 and 7 in an inhibition zone assay (Fig. 3). A clear inhibition zone (16 mm) using the ΔcytA mutant plate was observed when supplemented with 1 μg of 6 or 7. […] That CytA production endows cosmomycin resistance provides strong evidence that the cytA gene directly confers Streptomyces. sp. SCSIO 1666 with the ability to protect itself from the effects by self-resistance to cosmomycins C and D.
(§2) Fig. 3 Sensitivity of Streptomyces sp. SCSIO 1666 toward cosmomycin C (6) and cosmomycin D (7) (1 μg) as determined by growth inhibition zone assays. […] TEXT PRINTED IN THE PICTURE: 6: ΔcytA mutant strain: 16 mm DOUBTS OF THE COPYIST ABOUT THIS PICTURE: 6, ΔcytA mutant strain: the small yellow print reads 16 mm, but it could be 15 or 18 mm / 6: the yellow double arrow marked 16 mm spans the zone around disc 6. The picture prints no measure name, so it may be the inhibition zone diameter or only a scale mark

For assay [2], the system named is Streptomyces sp. SCSIO 1666 WT. Nature of the assay: Growth inhibition zone assay. It is filed as cell-based. The note with it: WT producer, paper discs impregnated with compound, 1 μg.
From the text: as §1, §2

The subject of another assay is CytA. The assay is described as follows: In vitro CytA enzymatic activity assay (HPLC analysis). It is filed as biochemical, Streptomyces sp. SCSIO 1666. Particulars: absence of O2 (anaerobic); 25 μM substrate, 0.5 μM CytA, 20 μM NADH, 37 °C. The source says: To explore the biochemical activity of CytA in vitro, the cytA gene was cloned into the NdeI and EcoRI sites of the pET28a (+) vector and the resulting vector was transformed into E. coli BL21(DE3) using previously described methods. CytA was overexpressed as an N-terminally His6-tagged soluble protein and purified to homogeneity by Ni affinity chromatography (Fig. 2a). […] The activity of CytA was first investigated using substrates 6–9 and ε-rhodomycinone (10) under aerobic conditions. Reactions with CytA were conducted at 37 °C in a volume of 100 μL consisting of 50 mM Tris-Cl (pH 8.0), 25 μM substrate, 0.5 μM CytA, and 20 μM NADH. Reactions with boiled CytA served as controls; all reactions were carried out in parallel to ensure reaction consistency. Reactions were terminated by addition of twofold volume of methanol. As expected, CytA failed, under aerobic conditions to modify any of the substrates 6–10. […] On the heels of this finding we then determined the kinetic parameters of CytA using 6 and 7 as substrates.
Enzymatic reactions were carried out under anaerobic conditions in an anaerobic workstation (Don Whitley Scientific A45) containing a gas phase of N2/H2/CO2 (80:10: 10%, by vol.). ^1H, ^13C, and 2D (COSY, HMQC, HMBC and NOESY) NMR spectra were recorded at 25 °C with an Avance 700 MHz spectrometer instruments (Bruker). […]

For `CC[C@@]1(O)C[C@H](O[C@H]2C[C@H](N(C)C)[C@@H](O[C@H]3C[C@H](O)[C@@H](O[C@H]4CC[C@H](O)[C@H](C)O4)[C@H](C)O3)[C@H](C)O2)c2c(O)c3c(c(O)c2[C@H]1O[C@H]1C[C@H](N(C)C)[C@@H](O[C@H]2CC[C@H](O[C@H]4CC[C@H](O)[C@H](C)O4)[C@H](C)O2)[C@H](C)O1)C(=O)c1cccc(O)c1C3=O` [Compound 6, cosmomycin C], the IC50 with MDA-MB-468 cells is 210 nM. Also, the zone of inhibition at 1 µg/disc in assay [1] was determined as 16 mm. For the same compound, in assay [2], the “growth inhibition near paper discs” value was “little to no growth inhibition”. The “conversion by CytA (C-7 reduction/deglycosylation)” value in the assay on CytA is “readily convert”.
Take `CC[C@@]1(O)C[C@H](O[C@H]2C[C@H](N(C)C)[C@H](O[C@H]3C[C@H](O)[C@H](O[C@H]4CC[C@H](O)[C@H](C)O4)[C@H](C)O3)[C@H](C)O2)c2c(O)c3c(c(O)c2[C@H]1O[C@H]1C[C@H](N(C)C)[C@H](O[C@H]2C[C@H](O)[C@H](O[C@H]4CC[C@H](O)[C@H](C)O4)[C@H](C)O2)[C@H](C)O1)C(=O)c1cccc(O)c1C3=O` [Compound 7, cosmomycin D]: in assay [1], the zone of inhibition at 1 µg/disc came to 16 mm. For the same compound, the “growth inhibition near paper discs” value in assay [2] is “little to no growth inhibition”. Besides, the “conversion by CytA (C-7 reduction/deglycosylation)” value in the assay on CytA was “readily convert”.
